The target in one experiment is T1, Atypical chemokine receptor 3 (Homo sapiens, UniProt P25106). Briefly: Displacement of [125I]SDF-1alpha from CXCR7 (unknown origin) expressed in CHO cells after 1 hr by TopCount scintillation counting analysis. It is filed as cell-based.
T1 sequence (P25106 whole entry): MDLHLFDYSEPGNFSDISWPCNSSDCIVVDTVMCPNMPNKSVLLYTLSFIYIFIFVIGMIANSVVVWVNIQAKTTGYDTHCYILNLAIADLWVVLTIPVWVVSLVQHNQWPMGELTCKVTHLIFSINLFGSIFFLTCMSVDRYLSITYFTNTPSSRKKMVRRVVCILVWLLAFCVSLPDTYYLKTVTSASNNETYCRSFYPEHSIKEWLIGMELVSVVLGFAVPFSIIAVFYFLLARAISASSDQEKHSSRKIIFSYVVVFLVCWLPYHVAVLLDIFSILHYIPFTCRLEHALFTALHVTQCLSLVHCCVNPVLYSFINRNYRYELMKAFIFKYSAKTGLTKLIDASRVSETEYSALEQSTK
`CCOc1cc(NC(=S)NCCCN(C)C)c(OCC)cc1NC(=O)c1ccc(C)cc1` returned an IC50 of 9.79 µM. That is a single-digit micromolar value.

Compound `CCC1CCCCN1CCCNC(=O)CSc1cc(=O)n(C)c2ccc(Cl)cc12` (stereo not given) yielded an IC50 of 2.16 µM.

Compound `CC1CCCN(CC(O)COc2ccc3c4c(c(=O)oc3c2)CCC4)C1` (stereo not given) showed an IC50 of 1.29 µM.

In turn, `CN(C)c1ccc(/C=C2\SC(N3CCN(CCO)CC3)=NC2=O)cc1` yielded a 50% inhibitory concentration (IC50) of 5.36 µM.

The compound `O=C(c1ccc(N2CCc3ccccc32)s1)N1CCC(N2CCCCC2)CC1` came in with an IC50 of 3.2 µM.

`CCCCN(CC)CCNC(=O)c1ccc(N2CCc3ccccc32)s1` yielded an IC50 of 3.89 µM.

The compound `CCC(C(=O)NCCCN(CC)Cc1ccccc1)n1nc(C)c2sc3ccccc3c2c1=O` (stereo not given) came in with an IC50 of 2.78 µM.

For `CCN1CCCC1CNC(=O)c1ccc(-n2ccc3ccccc32)s1` (stereo not given), the IC50 was found to be 6.75 µM. Against the preceding compound, the IC50 is about 2.4-fold higher.

In the case of `Cc1cc(OCC(=O)NC2CCN(Cc3ccccc3)CC2)c2c(C)cc(=O)oc2c1`, the IC50 stood at 1.49 µM.

In turn, `CCN1CCCC1CNC(=O)CN1C(=O)/C(=C/c2ccccc2F)Sc2ccccc21` (stereo not given) returned an IC50 of 6.19 µM.

On to `Cc1ccc(C(=O)Nc2ncc(CN3CCC(c4ccccc4)C3)s2)cc1` (stereo not given), for which the half-maximal inhibitory concentration (IC50) came to 4.35 µM.

In the case of `CN(Cc1ccccc1NC(=O)/C=C/c1cnn(-c2ccccc2)c1)C1CCCCC1`, the IC50 was found to be 5.84 µM. This IC50 and that of the compound before are within 1.5-fold of each other.

In the case of `CC1CCCCN1CC(O)COc1ccc2c3c(c(=O)oc2c1)CCC3` (stereo not given), the IC50 is 8.02 µM.

`O=C(NCCCN(Cc1ccco1)C1CCCC1)c1cc2c(s1)-c1ccccc1SC2`: the IC50 is 11.4 µM.

Turning to `Cc1ccc2c(c1)-c1onc(C(=O)NCCCN3CC(C)CC(C)C3)c1CO2` (stereo not given), the IC50 was determined as 2.92 µM.

For `CC1CCCCN1CCNC(=O)c1cc2c(s1)-c1ccc(Cl)cc1SC2` (stereo not given), the IC50 is 5.27 µM.

`CCN1CCc2nc3sc(C(=O)N4CCc5ccccc5C4)c(N)c3cc2C1` registered an IC50 of 10 µM.

As to `CN(CCCNC(=O)c1cc2c(=O)n(C)c3ccccc3c2s1)Cc1ccccc1`, the IC50 was 2.21 µM.

In turn, `Cc1ccc2[nH]c(=O)c3cc(C(=O)NCCN4CCCCCC4)sc3c2c1` yielded an IC50 of 7 µM. Against the preceding compound, the IC50 is about 3.2-fold higher.

For the compound `Cc1ccc2c(c1)-c1onc(C(=O)NCCN3CCCCC3C)c1CO2` (stereo not given), the IC50 amounted to 2.64 µM.

As for `COc1ccccc1C(CNC(=O)c1cc(-c2ccc(Br)cc2)on1)N1CCC(C)CC1` (stereo not given), the IC50 amounted to 1.87 µM.

The next experiment concerns the target T1, Atypical chemokine receptor 3. The experiment in a line: Binding affinity to CXCR7 (unknown origin).
Compound `O=C(c1cc2c(s1)-c1ccc(Cl)cc1SC2)N1CCC(N2CCCCC2)CC1` showed an IC50 of 6.33 µM.

As to `COc1c(C)cc2cccnc2c1N1CCCN(C(C(=O)N2CCNCC2)c2csc(C(C)C)n2)CC1` (stereo not given), the IC50 is below 0.1 µM.

`COc1ccc2c(c1)c1c(cnn1CC(=O)NCCN(C)C1CCCCC1)c(=O)n2C` showed an IC50 below 1 µM.

`CCc1ccc(NC(=O)CSc2nc3ccccc3c(=O)n2CCCC(=O)NCN2CCOCC2)cc1` registered an IC50 of 4.74 µM. In other words, the single-digit micromolar range.

The IC50 is the concentration that inhibits the measured activity by half. A higher IC50 goes with a need for much substance.

The record behind these values is ChEMBL document CHEMBL2380252, “Optimized method of G-protein-coupled receptor homology modeling: its application to the discovery of novel CXCR7 ligands” (J Med Chem, 2013).
